One assay relates to ORYSAT (Rice, Tebonnet). In words: Preemergence herbicidal evaluation. The assay is classed as in vivo, Oryza sativa, (L.) Tebonnet. The following applies: rated 4-5 weeks after treatment. In outline:
(§1)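 Steps: mix seeds into potting soil; plant atop ~1 inch soil; spray compound in aqueous acetone (~0.0156-0.500 kg/ha equivalent); maintain in greenhouse with watering; rate visually 0-9 versus control at 4-5 weeks.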

Assay [1] relates to CHEAL (Lambsquarters, Common). The assay is described as follows: Preemergence herbicidal evaluation. Format: in vivo, Chenopodium album. To be noted: rated 4-5 weeks after treatment. A digest of the protocol: as §1
The subject of assay [2] is TRZAWR (Wheat, Winter, cv Riband). In words: Postemergence herbicidal evaluation. Format: in vivo, Triticum aestivum. The following applies: postemergence. In outline: (§2)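 Rate range approx. 0.0156–0.500 kg/ha. Foliar application at 40 psi to ~2-week seedlings; surfactant 0.5% TWEEN 20 in 50/50 acetone/water. Evaluation 4–5 wk post-treatment by 0–9 visual injury score, means of replicate tests.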

The next assay concerns CASOB (Sicklepod). The assay is described as follows: Postemergence herbicidal evaluation. Format: in vivo, Cassia obtusifolia. The following applies: postemergence. In outline:
as §2

The test system of assay [3] is CHEAL (Lambsquarters, Common). In words: Postemergence herbicidal evaluation. To be noted: postemergence. Format: in vivo, Chenopodium album. In outline: as §2
The mark [4] stands for this setting: rate 0.0156 kg/ha, rating scale 0-9.
The mark [5] stands for this setting: rate 0.0313 kg/ha, rating scale 0-9.
Where [6] appears, read: rate 0.0625 kg/ha, rating scale 0-9.
The mark [7] stands for this setting: rate 0.1250 kg/ha, rating scale 0-9.
Setting [8] is: rate 0.2500 kg/ha, rating scale 0-9.

Take `Cn1c(C(F)(F)F)cc(=O)n(-c2cc(N=C3SCC(=O)N3CC(=O)OC3CCCC3)c(Cl)cc2F)c1=O` [Compound 120, Cyclopentyl 2-{{2-chloro-5-[3,6-dihydro-3-methyl-2,6-dioxo-4-(trifluoromethyl)-1(2H)-pyrimidinyl]-4-fluorophenyl}imino}-4-oxo-3-thiazolidineacetate]: the “Preemergence herbicidal rating ORYSAT” value in the assay on ORYSAT (Rice, Tebonnet) (rate 0.0156 kg/ha) is on record as 0.0; in the assay with ORYSAT (Rice, Tebonnet) (rate 0.0313 kg/ha), 0.0; in the assay on ORYSAT (Rice, Tebonnet) (rate 0.0625 kg/ha), 0.0; in the assay with ORYSAT (Rice, Tebonnet) (rate 0.1250 kg/ha), 0.0; in the assay with ORYSAT (Rice, Tebonnet) (rate 0.2500 kg/ha) it was 0.0. The “Preemergence herbicidal rating CHEAL” value in assay [1] (rate 0.0156 kg/ha), in assay [1] (rate 0.0313 kg/ha), in assay [1] (rate 0.0625 kg/ha), in assay [1] (rate 0.1250 kg/ha) and in assay [1] (rate 0.2500 kg/ha) was 9.0 in each case. Also, the “Herbicidal rating TRZAWR” value in assay [2] (rate 0.0156 kg/ha) stood at 3.5; in assay [2] (rate 0.0313 kg/ha) it was 4.5; in assay [2] (rate 0.0625 kg/ha), 5.0. For the same molecule, the “Herbicidal rating CASOB” value came to 3.0 with CASOB (Sicklepod) (rate 0.0156 kg/ha), 5.0 with CASOB (Sicklepod) (rate 0.0313 kg/ha) and 8.0 in the assay on CASOB (Sicklepod) (rate 0.0625 kg/ha). For the same molecule, the “Herbicidal rating CHEAL” value in assay [3] (rate 0.0156 kg/ha), in assay [3] (rate 0.0313 kg/ha) and in assay [3] (rate 0.0625 kg/ha) was 9.0 in each case.
Consider `CCOC(=O)CN1C(=O)C(C(=O)OC)SC1=Nc1cc(-n2c(=O)cc(C(F)(F)F)n(C)c2=O)c(F)cc1Cl` (stereo not drawn) [Compound 128, 5-Carboxy-2-{{2-chloro-5-[3,6-dihydro-3-methyl-2,6-dioxo-4-(trifluoromethyl)-1(2H)-pyrimidinyl]-4-fluorophenyl}imino}-4-oxo-3-thiazolidineacetic acid, 3-ethyl methyl ester], for which the “Preemergence herbicidal rating ORYSAT” value amounted to 0.0 in the assay on ORYSAT (Rice, Tebonnet) (rate 0.0156 kg/ha); 0.0 with ORYSAT (Rice, Tebonnet) (rate 0.0313 kg/ha); 0.0 in the assay with ORYSAT (Rice, Tebonnet) (rate 0.0625 kg/ha); 0.0 in the assay with ORYSAT (Rice, Tebonnet) (rate 0.1250 kg/ha); 0.0 in the assay on ORYSAT (Rice, Tebonnet) (rate 0.2500 kg/ha). For the same molecule, the “Preemergence herbicidal rating CHEAL” value in assay [1] (rate 0.0156 kg/ha) stood at 9.0; in assay [1] (rate 0.0313 kg/ha) it was 7.0; in assay [1] (rate 0.0625 kg/ha) it was 9.0; in assay [1] (rate 0.1250 kg/ha), 9.0; in assay [1] (rate 0.2500 kg/ha), 9.0. The “Herbicidal rating TRZAWR” value in assay [2] (rate 0.0156 kg/ha) is reported as 2.0; in assay [2] (rate 0.0313 kg/ha), 3.0; in assay [2] (rate 0.0625 kg/ha) it was 3.5. The entries for the “Herbicidal rating CASOB” value in the assay with CASOB (Sicklepod) (rate 0.0156 kg/ha), with CASOB (Sicklepod) (rate 0.0313 kg/ha) and with CASOB (Sicklepod) (rate 0.0625 kg/ha) were 1.0, 1.0 and 7.0, respectively. The “Herbicidal rating CHEAL” value in assay [3] (rate 0.0156 kg/ha) was 4.0; in assay [3] (rate 0.0313 kg/ha), 9.0; in assay [3] (rate 0.0625 kg/ha), 9.0.
For `CC(C)COC(=O)CN1C(=O)CSC1=Nc1cc(-n2c(=O)cc(C(F)(F)F)n(C)c2=O)c(F)cc1Cl` [Compound 121, Isobutyl 2-{{2-chloro-5-[3,6-dihydro-3-methyl-2,6-dioxo-4-(trifluoromethyl)-1(2H)-pyrimidinyl]-4-fluorophenyl}imino}-4-oxo-3-thiazolidineacetate], the “Preemergence herbicidal rating ORYSAT” value amounted to 0.0 in the assay with ORYSAT (Rice, Tebonnet) (rate 0.0156 kg/ha); 0.0 in the assay with ORYSAT (Rice, Tebonnet) (rate 0.0313 kg/ha); 0.0 with ORYSAT (Rice, Tebonnet) (rate 0.0625 kg/ha); 4.0 with ORYSAT (Rice, Tebonnet) (rate 0.1250 kg/ha); 5.0 with ORYSAT (Rice, Tebonnet) (rate 0.2500 kg/ha). Besides, the “Preemergence herbicidal rating CHEAL” value in assay [1] (rate 0.0156 kg/ha), in assay [1] (rate 0.0313 kg/ha), in assay [1] (rate 0.0625 kg/ha), in assay [1] (rate 0.1250 kg/ha) and in assay [1] (rate 0.2500 kg/ha) was 9.0 in each case. The “Herbicidal rating TRZAWR” value turned out to be 3.0 in assay [2] (rate 0.0156 kg/ha), 4.0 in assay [2] (rate 0.0313 kg/ha) and 5.0 in assay [2] (rate 0.0625 kg/ha). Further, the “Herbicidal rating CASOB” value in the assay on CASOB (Sicklepod) (rate 0.0156 kg/ha) came out at 0.0; in the assay with CASOB (Sicklepod) (rate 0.0313 kg/ha), 1.0; with CASOB (Sicklepod) (rate 0.0625 kg/ha), 7.0. In addition, the results for the “Herbicidal rating CHEAL” value in assay [3] (rate 0.0156 kg/ha), in assay [3] (rate 0.0313 kg/ha) and in assay [3] (rate 0.0625 kg/ha) were 4.0, 7.0 and 9.0, respectively.
As to `Cn1c(C(F)(F)F)cc(=O)n(-c2cc(N=C3SCC(=O)N3Cc3ccc(Cl)c(Cl)c3)c(Cl)cc2F)c1=O` [Compound 144, 3-{4-Chloro-5-{[3-(3,4-dichlorobenzyl)-4-oxo-2-thiazolidinylidene]amino}-2-fluorophenyl}-1-methyl-6-(trifluoromethyl)-2,4(1H,3H)-pyrimidinedione], the “Preemergence herbicidal rating ORYSAT” value is recorded as 0.0 with ORYSAT (Rice, Tebonnet) (setting [4]); 0.0 in the assay with ORYSAT (Rice, Tebonnet) (setting [5]); 0.0 in the assay on ORYSAT (Rice, Tebonnet) (setting [6]); 0.0 in the assay with ORYSAT (Rice, Tebonnet) (setting [7]); 0.0 with ORYSAT (Rice, Tebonnet) (setting [8]). Besides, the “Preemergence herbicidal rating CHEAL” value worked out at 6.0 in assay [1] (setting [4]); 7.0 in assay [1] (setting [5]); 9.0 in assay [1] (setting [6]); 9.0 in assay [1] (setting [7]); 9.0 in assay [1] (setting [8]). In addition, the “Herbicidal rating TRZAWR” value came out at 3.5 in assay [2] (rate 0.0156 kg/ha), 3.5 in assay [2] (rate 0.0313 kg/ha) and 4.0 in assay [2] (rate 0.0625 kg/ha). Also, the “Herbicidal rating CASOB” value in the assay with CASOB (Sicklepod) (rate 0.0156 kg/ha) was determined as 3.0; in the assay on CASOB (Sicklepod) (rate 0.0313 kg/ha), 5.0; with CASOB (Sicklepod) (rate 0.0625 kg/ha), 7.0. Moreover, the “Herbicidal rating CHEAL” value amounted to 7.0 in assay [3] (rate 0.0156 kg/ha), 9.0 in assay [3] (rate 0.0313 kg/ha) and 9.0 in assay [3] (rate 0.0625 kg/ha).
In the case of `CCOC(=O)CN1C(=O)C(OC)SC1=Nc1cc(-n2c(=O)cc(C(F)(F)F)n(C)c2=O)c(F)cc1Cl` (stereo not drawn) [Compound 160, Ethyl 2-{{2-chloro-5-[3,6-dihydro-3-methyl-2,6-dioxo-4-(trifluoromethyl)-1(2H)-pyrimidinyl]-4-fluorophenyl}imino}-5-methoxy-4-oxo-3-thiazolidineacetate], the “Preemergence herbicidal rating ORYSAT” value in the assay on ORYSAT (Rice, Tebonnet) (0.0156 kg/ha) was 0.0; in the assay on ORYSAT (Rice, Tebonnet) (0.0313 kg/ha) it was 0.0; in the assay with ORYSAT (Rice, Tebonnet) (0.0625 kg/ha), 1.0; in the assay on ORYSAT (Rice, Tebonnet) (0.1250 kg/ha) it was 1.0; in the assay with ORYSAT (Rice, Tebonnet) (0.2500 kg/ha), 7.0; in the assay with ORYSAT (Rice, Tebonnet) (0.5000 kg/ha), 8.0. The “Preemergence herbicidal rating CHEAL” value is listed as 2.0 in assay [1] (0.0156 kg/ha); 9.0 in assay [1] (0.0313 kg/ha); 9.0 in assay [1] (0.0625 kg/ha); 9.0 in assay [1] (0.1250 kg/ha); 9.0 in assay [1] (0.2500 kg/ha); 9.0 in assay [1] (0.5000 kg/ha). The “Herbicidal rating TRZAWR” value in assay [2] (rate 0.0156 kg/ha) is 3.0; in assay [2] (rate 0.0313 kg/ha), 4.0; in assay [2] (rate 0.0625 kg/ha) it was 5.0; in assay [2] (rate 0.1250 kg/ha), 6.0. The “Herbicidal rating CASOB” value with CASOB (Sicklepod) (rate 0.0156 kg/ha) is 0.0; with CASOB (Sicklepod) (rate 0.0313 kg/ha), 0.0; in the assay with CASOB (Sicklepod) (rate 0.0625 kg/ha), 1.0; in the assay with CASOB (Sicklepod) (rate 0.1250 kg/ha), 4.0. Further, the “Herbicidal rating CHEAL” value in assay [3] (rate 0.0156 kg/ha) is 2.0; in assay [3] (rate 0.0313 kg/ha) it was 6.0; in assay [3] (rate 0.0625 kg/ha), 9.0; in assay [3] (rate 0.1250 kg/ha) it was 9.0.
With `Cn1c(C(F)(F)F)cc(=O)n(-c2cc(N=C3SCC(=O)N3Cc3ccncc3)c(Cl)cc2F)c1=O` [Compound 133, 3-{4-Chloro-2-fluoro-5-{[4-oxo-3-(4-pyridylmethyl)-2-thiazolidinylidene]amino}phenyl}-1-methyl-6-(trifluoromethyl)-2,4(1H,3H)-pyrimidinedione], the “Preemergence herbicidal rating ORYSAT” value in the assay on ORYSAT (Rice, Tebonnet) (setting [5]) is recorded as 0.0; in the assay with ORYSAT (Rice, Tebonnet) (setting [6]) it was 0.0; in the assay with ORYSAT (Rice, Tebonnet) (setting [7]), 0.0; with ORYSAT (Rice, Tebonnet) (setting [8]), 0.0. Besides, the “Preemergence herbicidal rating CHEAL” value in assay [1] (setting [5]), in assay [1] (setting [6]), in assay [1] (setting [7]) and in assay [1] (setting [8]) was 9.0 in each case. The “Herbicidal rating TRZAWR” value is 2.5 in assay [2] (rate 0.0156 kg/ha), 3.0 in assay [2] (rate 0.0313 kg/ha) and 3.5 in assay [2] (rate 0.0625 kg/ha). For the same molecule, the figures for the “Herbicidal rating CASOB” value in the assay with CASOB (Sicklepod) (rate 0.0156 kg/ha), in the assay on CASOB (Sicklepod) (rate 0.0313 kg/ha) and in the assay on CASOB (Sicklepod) (rate 0.0625 kg/ha) were 0.0, 1.0 and 3.0, respectively. Moreover, the “Herbicidal rating CHEAL” value came out at 9.0 in assay [3] (rate 0.0156 kg/ha), 6.0 in assay [3] (rate 0.0313 kg/ha) and 9.0 in assay [3] (rate 0.0625 kg/ha).

The values are drawn from patent publication US20020137929A1, “1 - (3-heterocyclylphenyl) isothiourea, -isourea, -guanidine and -amidine herbicidal agents” (Intellectual Property Department, BASF Aktiengesellschaft, priority 1998, published 2002).
